# Test results published in patent publication US11491120B2, “Pharmacological prophylactics against stress-induced affective disorders in females” (The Trustees of Columbia University in the City of New York, priority 2017, dated 2022).
# “Also recorded” adds a separate entry of the source.
# Test system: female 129S6/SvEv mice
# Assay: Forced swim test (FST), immobility time, after stress
# [1] = Forced Swim Test Day 1, Dunnett test Sal vs. drug (0.1), 1 week prophylactic drug
# [2] = Forced Swim Test Day 1, Dunnett test Sal vs. drug (0.3), 1 week prophylactic drug
# [3] = Forced Swim Test Day 1, Dunnett test Sal vs. drug (2.5), 1 week prophylactic drug
# [4] = Forced Swim Test Day 1, Dunnett test Sal vs. drug (10), 1 week prophylactic drug
# [5] = Ovariectomized cohort, 1 week prophylactic drug, Forced Swim Test Day 1, OVX mice, K (10), (2R,6R)-HNK (0.025)
# [6] = Ovariectomized cohort, 1 week prophylactic drug, Forced Swim Test Day 1, Sham mice, K (10), (2R,6R)-HNK (0.025)
# [7] = Ovariectomized cohort, 1 week prophylactic drug, Forced Swim Test Day 1, Sham vs OVX, same drug, K (10), (2R,6R)-HNK (0.025)
# [8] = Ovariectomized, E2/P4 replacement, 1 week prophylactic drug, Forced Swim Test Day 2, K (10), (2R,6R)-HNK (0.025), FIG. 5F
# [9] = Ovariectomized, same drug, hormone Vehicle vs. E2/P4 replacement, 1 week prophylactic drug, Forced Swim Test Day 2, K (10), (2R,6R)-HNK (0.025), FIG. 5F
# [10] = Sal vs. (2R,6R)-HNK (0.025), Fisher's PLSD, 1 week prophylactic drug, learned helplessness stress, Forced Swim Test Day 1
# [11] = Sal vs. (2R,6R)-HNK (0.025), Fisher's PLSD, 3 day prophylactic drug/Forced Swim Test Day 1
# [12] = Same drug, Sham vs. ovariectomized, 1 week prophylactic drug, Forced Swim Test Day 2, K (10), (2R,6R)-HNK (0.025), FIG. 5C
# [13] = Sham-operated females, 1 week prophylactic drug, Forced Swim Test Day 2, K (10), (2R,6R)-HNK (0.025), FIG. 5C
smiles,measurement,setting,value
"N[C@@]1(c2ccccc2Cl)CCC[C@@H](O)C1=O [(2R,6R)-HNK, (2R,6R)-hydroxynorketamine]","p, Immobility Time (min 6)",[1],0.9218
same,"p, Immobility Time Average (min 3-6)",[1],0.3240
same,"p, Immobility Time (min 1)",[2],0.0586
same,"p, Immobility Time (min 1-6)",[2],>0.9999
same,"p, Immobility Time (min 3)",[2],>0.9999
same,"p, Immobility Time (min 4)",[2],0.7424
same,"p, Immobility Time (min 5)",[2],0.3614
same,"p, Immobility Time (min 6)",[2],0.9996
same,"p, Immobility Time Average (min 3-6)",[2],0.9455
same,"* (significance), Immobility Time (min 1)",[3],** (** p<0.01)
same,"p, Immobility Time (min 1)",[3],0.0026
same,"p, Immobility Time (min 1-6)",[3],0.7127
same,"p, Immobility Time (min 3)",[3],0.9998
same,"p, Immobility Time (min 4)",[3],0.9999
same,"p, Immobility Time (min 5)",[3],0.9867
same,"p, Immobility Time (min 6)",[3],0.9994
same,"p, Immobility Time Average (min 3-6)",[3],0.9997
same,"p, Immobility Time (min 1)",[4],0.0528
same,"p, Immobility Time (min 1-6)",[4],0.9943
same,"p, Immobility Time (min 3)",[4],0.6584
same,"p, Immobility Time (min 4)",[4],0.5947
same,"p, Immobility Time (min 5)",[4],0.6743
same,"p, Immobility Time (min 6)",[4],0.1601
same,"p, Immobility Time Average (min 3-6)",[4],0.3035
same,"p, Immobility Time (min 1-6), OVX Sal vs OVX drug",[5],0.2525
same,"p, Immobility Time Average (min 3-6), Fisher's PLSD, OVX Sal vs OVX drug",[5],0.3199
same,"p, Immobility Time (min 1-6), Sham Sal vs Sham drug",[6],0.7085
same,"p, Immobility Time Average (min 3-6), Fisher's PLSD, Sham Sal vs Sham drug",[6],0.9957
same,"* (significance), Immobility Time (min 1-6), Sham drug vs OVX drug",[7],*** (*** p<0.0001)
same,"* (significance), Immobility Time Average (min 3-6), Fisher's PLSD, Sham drug vs OVX drug",[7],*** (*** p<0.0001)
same,"p, Immobility Time (min 1-6), Sham drug vs OVX drug",[7],<0.0001
same,"p, Immobility Time Average (min 3-6), Fisher's PLSD, Sham drug vs OVX drug",[7],0.0001
same,"p, Fisher's PLSD, Immobility Time Average (min 3-6), OVX Sal vs. OVX drug","Ovariectomized females, 1 week prophylactic drug, Forced Swim Test Day 2, K (10), (2R,6R)-HNK (0.025), FIG. 5C",0.9445
same,"p, Fisher's PLSD, Immobility Time Average (min 3-6), E2/P4 Sal vs. E2/P4 drug",[8],0.0316
same,"significance (*), Fisher's PLSD, Immobility Time Average (min 3-6), E2/P4 Sal vs. E2/P4 drug",[8],* (* p<0.05)
same,"p, Fisher's PLSD, Immobility Time Average (min 3-6), Vehicle Sal vs. Vehicle drug","Ovariectomized, hormone Vehicle, 1 week prophylactic drug, Forced Swim Test Day 2, K (10), (2R,6R)-HNK (0.025), FIG. 5F",0.6287
same,"p, Fisher's PLSD, Immobility Time Average (min 3-6), Vehicle drug vs. E2/P4 drug",[9],0.0013
same,"significance (*), Fisher's PLSD, Immobility Time Average (min 3-6), Vehicle drug vs. E2/P4 drug",[9],** (** p<0.01)
same,"*, Immobility Time (min 1)",[10],** (** p<0.01)
same,"*, Immobility Time (min 2)",[10],*** (*** p<0.0001)
same,"*, Immobility Time (min 3)",[10],*** (*** p<0.0001)
same,"*, Immobility Time (min 4)",[10],** (** p<0.01)
same,"*, Immobility Time (min 5)",[10],** (** p<0.01)
same,"*, Immobility Time (min 6)",[10],** (** p<0.01)
same,"*, Immobility Time Average (min 1-6)",[10],*** (*** p<0.0001)
same,"p, Immobility Time (min 1)",[10],0.0043
same,"p, Immobility Time (min 2)",[10],<0.0001
same,"p, Immobility Time (min 3)",[10],0.0001
same,"p, Immobility Time (min 4)",[10],0.0009
same,"p, Immobility Time (min 5)",[10],0.0002
same,"p, Immobility Time (min 6)",[10],0.0002
same,"p, Immobility Time Average (min 1-6)",[10],0.0001
same,"*, Immobility Time (min 1)",[11],*** (*** p<0.0001)
same,"*, Immobility Time (min 2)",[11],** (** p<0.01)
same,"*, Immobility Time (min 3)",[11],** (** p<0.01)
same,"*, Immobility Time (min 4)",[11],** (** p<0.01)
same,"*, Immobility Time (min 5)",[11],** (** p<0.01)
same,"*, Immobility Time (min 6)",[11],** (** p<0.01)
same,"*, Immobility Time Average (min 3-6)",[11],** (** p<0.01)
same,"p, Immobility Time (min 1)",[11],<0.0001
same,"p, Immobility Time (min 2)",[11],0.0005
same,"p, Immobility Time (min 3)",[11],0.0073
same,"p, Immobility Time (min 4)",[11],0.0039
same,"p, Immobility Time (min 5)",[11],0.0006
same,"p, Immobility Time (min 6)",[11],0.0006
same,"p, Immobility Time Average (min 3-6)",[11],0.0008
same,"p, Immobility Time (min 1)","Sal vs. (2R,6R)-HNK (0.025), Fisher's PLSD, Antidepressant drug/Forced Swim Test Day 2",0.2184
same,"p, Immobility Time Average (min 3-6)","Sal vs. (2R,6R)-HNK (0.025), t-test, 24 hour prophylactic drug/Forced Swim Test Day 1",0.5779
same,"p, Fisher's PLSD, Immobility Time Average (min 3-6), Sham drug vs. OVX drug",[12],0.0476
same,"significance (*), Fisher's PLSD, Immobility Time Average (min 3-6), Sham drug vs. OVX drug",[12],* (* p<0.05)
same,"p, Fisher's PLSD, Immobility Time Average (min 3-6), Sham Sal vs. Sham drug",[13],0.0099
same,"significance (*), Fisher's PLSD, Immobility Time Average (min 3-6), Sham Sal vs. Sham drug",[13],** (** p<0.01)
same,Immobility in the FST (Day 1 and Day 2) vs saline,"drug administered 1 hour after 3-shock CFC stressor, female mice","did not reduce immobility levels; also recorded: Neither (R,S)-ketamine nor (2R,6R)-HNK significantly affected immobility time"
same,Prophylactically effective dose in females,"female mice, 1 week before stressor",0.025 mg/kg
same,Immobility in the FST vs saline,"ovariectomized mice with cyclic E2 and P4 replacement, drug 1 week before CFC",significantly less immobile compared to control saline mice; also recorded: significantly reduced immobility
same,Prophylactic efficacy against stress-induced depressive-like behavior,"single injection 1 week before stressor, female mice",significantly reduced stress-induced depressive-like behavior; also recorded: significantly decreased stress-induced depressive-like behavior; also recorded: is prophylactic against depressive-like behavior; also recorded: prophylactic against stress-induced depressive-like behavior; also recorded: effective prophylactics against a variety of stressors; also recorded: protect against stress-induced depressive-like behavior
